Laboratory results: patent publication US20140377223A1, “SUBSTITUTED B[…] AND METHODS OF USE THEREOF FOR THE TREATMENT OF VIRAL DISEASES” (priority 2010, published 2014)

Tests used:
HCV replicon genotype 1a = experiment: Cell-based HCV replicon assay (TaqMan-based), genotype 1a; settings: Hepatitis C virus, 72 h, HCV replicon cells, replicon RNA by real time PCR (TaqMan) on day 3
Procedure: (§1) Measurement of inhibition by compounds was performed using the HCV replicon system. Several different replicons encoding different HCV genotypes or mutations were used. In addition, potency measurements were made using different formats of the replicon assay, including different ways of measurements and different plating formats. See Jan M. Vrolijk et al., A replicons-based bioassay for the measurement of interferons in patients with chronic hepatitis C, 110 J. VIROLOGICAL METHODS 201 (2003); Steven S. Carroll et al., Inhibition of Hepatitis C Virus RNA Replication by 2′-Modified Nucleoside Analogs, 278(14) J. BIOLOGICAL CHEMISTRY 11979 (2003). However, the underlying principles are common to all of these determinations, and are outlined below.
(§2) TaqMan®-Based Assay Protocol: Compounds 1, 2 and 3 were assayed for cell-based anti-HCV activity by the following protocol. Replicon cells were seeded at 5000 cells/well in 96-well collagen I-coated Nunc plates in the presence of the test compound. Various concentrations of test compound, typically in 10 serial 2-fold dilutions, were added to the assay mixture, with the starting concentration ranging from 250 μM to 1 μM. The final concentration of DMSO was 0.5%, fetal bovine serum was 5%, in the assay media. Cells were harvested on day 3 by the addition of 1× cell lysis buffer (Ambion cat #8721). The replicon RNA level was measured using real time PCR (TaqMan® assay). The amplicon was located in 5B. The PCR primers were: 5B.2F, ATGGACAGGCGCCCTGA (SEQ. ID NO. 1); 5B.2R, […] (SEQ. ID NO. 2); the probe sequence was FAM-labeled CACGCCATGCGCTGCGG (SEQ. ID NO. 3). GAPDH RNA was used as endogenous control and was amplified in the same reaction as NS5B (multiplex PCR) using primers and VIC-labeled probe recommended by the manufacturer (PE Applied Biosystem). […] Alternatively, to quantitate the absolute amount of replicon RNA, a standard curve was established by including serially diluted T7 transcripts of replicon RNA in the Taqman assay. […]

HCV replicon genotype 1b = experiment: Cell-based HCV replicon assay (TaqMan-based), genotype 1b; settings: Hepatitis C virus, 72 h, HCV replicon cells, replicon RNA by real time PCR (TaqMan) on day 3
Procedure: as §1, §2

HCV replicon genotype 2a = experiment: Cell-based HCV replicon assay (TaqMan-based), genotype 2a; settings: Hepatitis C virus, 72 h, HCV replicon cells, replicon RNA by real time PCR (TaqMan) on day 3
Procedure: as §1, §2

HCV replicon genotype 3a = experiment: Cell-based HCV replicon assay (TaqMan-based), genotype 3a; settings: Hepatitis C virus, 72 h, read-out: Genotype EC50 (nM) 3a
Procedure: as §1, §2

SMILES | EC50 (HCV replicon genotype 1a) | EC50 (HCV replicon genotype 1b) | EC50 (HCV replicon genotype 2a) | EC50 (HCV replicon genotype 3a)
COC(=O)N[C@H](C(=O)N1CCC[C@H]1c1ncc(-c2ccc3c(c2)-c2ccc(-c4cnc([C@@H]5CCCN5C(=O)[C@@H](NC(=O)OC)C(C)C)[nH]4)cc2-3)[nH]1)C(C)C [Compound 1] | 0.03 nM | 0.007 nM | < 0.019 nM | < 0.19 nM
COC(=O)N[C@H](C(=O)N1C(c2ncc(-c3ccc4c(c3)-c3ccc(-c5cnc([C@@H]6[C@H]7CC[C@H](C7)N6C(=O)[C@@H](NC(=O)OC)C(C)C)[nH]5)cc3-4)[nH]2)[C@H]2CC[C@@H]1C2)C(C)C (stereo partly drawn) [Compound 2] | 0.52 nM | 0.005 nM | < 0.019 nM | < 0.19 nM
COC(=O)N[C@H](C(=O)N1CC(F)(F)C[C@H]1c1ncc(-c2ccc3c(c2)-c2ccc(-c4cnc([C@@H]5CC(F)(F)CN5C(=O)[C@@H](NC(=O)OC)C(C)C)[nH]4)cc2-3)[nH]1)C(C)C [Compound 3] | 0.05 nM | 0.003 nM | < 0.019 nM | 0.022 nM
